Values joined by “and” are separate entries in the source; they are usually repeats but may differ in a detail not shown here. Equal entries are not always repeated.
Test system: hAAT
Test: Serum hAAT protein levels in PiZ mice (ELISA)
Type: in vivo, human (expressed in PiZ mice)
Settings: for Normalized serum hAAT levels / Serum hAAT normalized to Day 1 and control / Serum hAAT normalized to day 1: PiZ mice; for Normalized serum hAAT levels: normalized to day 1 and saline control; for Serum hAAT normalized to Day 1 and control: single IV 4 mg/kg + 8 mg/kg MLP delivery polymer; for Serum hAAT normalized to day 1: single IV 6 mg/kg with 6 mg/kg MLP delivery polymer; for Serum hAAT normalized to day 1 and controls: female PiZ mice, single IV 8 mg/kg + 8 mg/kg MLP delivery polymer
Method: Human AAT protein levels in serum were monitored for 29 days. At the indicated times, blood samples were collected and assayed for hAAT by ELISA. Day 1 samples were collected prior to trigger administration. For mRNA analysis, 3-4 mice were euthanized at each of days 3, 8, 15, 22, and 29. For euthanized mice, cardiac stick were performed for serum isolation for AAT ELISA (200 μl serum). Half of the left lateral liver lobe was collected and snap-freeze in liquid nitrogen for RNA isolation. The remainder of the left lobes were embedded into paraffin blocks for PAS-D staining with hematoxylin as counter-stain. Serum hAAT levels in mice given AAT Duplex Pair SEQ ID NO: 5/6 were 95% reduced on day 8 and remained reduced to day 29, at which time they were 79% reduced. Mice given AAT Duplex Pair SEQ ID NO: 5/6 were euthanized at either day 3, 8, 15, 22 or 29. Mice given saline or Luciferase siRNA control (SEQ ID 7/8) were euthanized on day 29. Levels of hAAT mRNA in the livers were measured by RT-qPCR. The hAAT mRNA in mice given AAT Duplex Pair SEQ ID NO: 5/6 was reduced by 97% on day 3 and remained reduced on day 29, at which time levels were 56% reduced. The size of the globules and the area of the liver covered by globules was digitally quantitated from liver specimens stained with PAS-D. Duplex Pair SEQ ID NO: 5/6 treated mice had 70% smaller globules at day 15 and 62% smaller globules at day 29. The area of the liver covered with globules was 83% reduced on day 15 and 72% reduced on day 29 (FIG. 5).

Duplex Pair SEQ ID NO: 5/6: double-stranded AAT RNAi agent: modified antisense strand SEQ ID NO: 5 annealed to Chol-TEG sense strand SEQ ID NO: 6 (antisense TGGAACUUGGUGAUGAUAUTT; sense UAUAUAUCAUCACCAAGUUCCAT; Chol-TEG on sense strand; chemical modifications; antisense strand of dsRNA; modified_base 7 /mod_base = “2′-3′ seco corresponding nucleotide”; modified_base 2,4,6,8,10,12,14,16,18 /mod_base = “2′-deoxy-2′-fluoro corresponding nucleoside”; modified_base 3,5,9,11,13,15,17,19 /mod_base = “2′-O-methyl corresponding nucleoside”; modified_base 21 /mod_base = “5′-phosphorothioate corresponding nucleotide”; sense strand of dsRNA; modified_base 2 /mod_base = “2′-hydroxy corresponding nucleoside”; modified_base 4,6,8,10,12,14,16,18,20,22 /mod_base = “2′-deoxy-2′-fluoro corresponding nucleoside”; …)
Normalized serum hAAT levels (single IV 4 mg/kg + 4 mg/kg MLP, day 1): 1.00 | Normalized serum hAAT levels (single IV 4 mg/kg + 4 mg/kg MLP, day 8): 0.03 ± 0.01 | Normalized serum hAAT levels (single IV 4 mg/kg + 4 mg/kg MLP, day 15): 0.23 ± 0.04 | Normalized serum hAAT levels (single IV 4 mg/kg + 4 mg/kg MLP, day 20): 0.32 ± 0.05 | Normalized serum hAAT levels (single IV 4 mg/kg + 4 mg/kg MLP, day 29): 0.66 ± 0.10 | Normalized serum hAAT levels (single IV 4 mg/kg + 4 mg/kg MLP, day 36): 0.83 ± 0.06 | Normalized serum hAAT levels (single IV 4 mg/kg + 4 mg/kg MLP, day −7): 0.68 ± 0.07 | Serum hAAT normalized to Day 1 and control (Day 1): 1.00 | Serum hAAT normalized to Day 1 and control (Day 3): 0.20 ± 0.04 | Serum hAAT normalized to Day 1 and control (Day 8): 0.05 ± 0.01 | Serum hAAT normalized to Day 1 and control (Day 15): 0.09 ± 0.01 | Serum hAAT normalized to Day 1 and control (Day 22): 0.28 ± 0.05 | Serum hAAT normalized to Day 1 and control (Day 29): 0.35 ± 0.05 | Serum hAAT normalized to Day 1 and control (Day 35): 0.81 ± 0.12 | Serum hAAT normalized to Day 1 and control (Day −3): 0.73 ± 0.13 | Serum hAAT normalized to day 1 (day 1 (reference)): 1.00 | Serum hAAT normalized to day 1 (day 3, listed as AAT RNAi agent (SEQ ID NO: 5/6), 6 mg/kg): 0.326 ± 0.021 and 0.274 ± 0.072 | Serum hAAT normalized to day 1 (day 10): 0.105 ± 0.033 | Normalized serum hAAT levels (single IV 8 mg/kg + 2 mg/kg MLP, day 1): 1.00 | Normalized serum hAAT levels (single IV 8 mg/kg + 2 mg/kg MLP, day 8): 0.09 ± 0.05 | Normalized serum hAAT levels (single IV 8 mg/kg + 2 mg/kg MLP, day 15): 0.59 ± 0.16 | Normalized serum hAAT levels (single IV 8 mg/kg + 2 mg/kg MLP, day 20): 0.74 ± 0.10 | Normalized serum hAAT levels (single IV 8 mg/kg + 2 mg/kg MLP, day 29): 0.87 ± 0.20 | Normalized serum hAAT levels (single IV 8 mg/kg + 2 mg/kg MLP, day 36): 0.74 ± 0.08 | Normalized serum hAAT levels (single IV 8 mg/kg + 2 mg/kg MLP, day −7): 0.70 ± 0.15 | Normalized serum hAAT levels (single IV 8 mg/kg + 4 mg/kg MLP, day 1): 1.00 | Normalized serum hAAT levels (single IV 8 mg/kg + 4 mg/kg MLP, day 8): 0.04 ± 0.02 | Normalized serum hAAT levels (single IV 8 mg/kg + 4 mg/kg MLP, day 15): 0.27 ± 0.05 | Normalized serum hAAT levels (single IV 8 mg/kg + 4 mg/kg MLP, day 20): 0.35 ± 0.05 | Normalized serum hAAT levels (single IV 8 mg/kg + 4 mg/kg MLP, day 29): 0.80 ± 0.20 | Normalized serum hAAT levels (single IV 8 mg/kg + 4 mg/kg MLP, day 36): 1.00 ± 0.20 | Normalized serum hAAT levels (single IV 8 mg/kg + 4 mg/kg MLP, day −7): 0.70 ± 0.24 | Normalized serum hAAT levels (single IV 8 mg/kg + 8 mg/kg MLP, day 1): 1.00 | Normalized serum hAAT levels (single IV 8 mg/kg + 8 mg/kg MLP, day 8): 0.02 ± 0.00 | Normalized serum hAAT levels (single IV 8 mg/kg + 8 mg/kg MLP, day 15): 0.13 ± 0.06 | Normalized serum hAAT levels (single IV 8 mg/kg + 8 mg/kg MLP, day 20): 0.16 ± 0.04 | Normalized serum hAAT levels (single IV 8 mg/kg + 8 mg/kg MLP, day 29): 0.43 ± 0.08 | Normalized serum hAAT levels (single IV 8 mg/kg + 8 mg/kg MLP, day 36): 0.78 ± 0.23 | Normalized serum hAAT levels (single IV 8 mg/kg + 8 mg/kg MLP, day −7): 0.89 ± 0.54 | Serum hAAT normalized to day 1 and controls (mice euthanized Day 3, Day 1): 1.000 | Serum hAAT normalized to day 1 and controls (mice euthanized Day 3, Day 3): 0.255 ± 0.040 | Serum hAAT normalized to day 1 and controls (mice euthanized Day 3, Day −2): 1.068 ± 0.070 | Serum hAAT normalized to day 1 and controls (mice euthanized Day 8, Day 1): 1.000 | Serum hAAT normalized to day 1 and controls (mice euthanized Day 8, Day 3): 0.184 ± 0.025 | Serum hAAT normalized to day 1 and controls (mice euthanized Day 8, Day 8): 0.054 ± 0.004 | Serum hAAT normalized to day 1 and controls (mice euthanized Day 8, Day −2): 0.895 ± 0.129 | Serum hAAT normalized to day 1 and controls (mice euthanized Day 15, Day 1): 1.000 | Serum hAAT normalized to day 1 and controls (mice euthanized Day 15, Day 3): 0.243 ± 0.060 | Serum hAAT normalized to day 1 and controls (mice euthanized Day 15, Day 8): 0.066 ± 0.023 | Serum hAAT normalized to day 1 and controls (mice euthanized Day 15, Day 15): 0.095 ± 0.063 | Serum hAAT normalized to day 1 and controls (mice euthanized Day 15, Day −2): 0.66 ± 0.121 | Serum hAAT normalized to day 1 and controls (mice euthanized Day 22, Day 1): 1.000 | Serum hAAT normalized to day 1 and controls (mice euthanized Day 22, Day 3): 0.202 ± 0.054 | Serum hAAT normalized to day 1 and controls (mice euthanized Day 22, Day 8): 0.044 ± 0.010 | Serum hAAT normalized to day 1 and controls (mice euthanized Day 22, Day 15): 0.056 ± 0.011 | Serum hAAT normalized to day 1 and controls (mice euthanized Day 22, Day 22): 0.100 ± 0.039 | Serum hAAT normalized to day 1 and controls (mice euthanized Day 22, Day −2): 0.779 ± 0.280 | Serum hAAT normalized to day 1 and controls (mice euthanized Day 29, Day 1): 1.000 | Serum hAAT normalized to day 1 and controls (mice euthanized Day 29, Day 3): 0.238 ± 0.062 | Serum hAAT normalized to day 1 and controls (mice euthanized Day 29, Day 8): 0.052 ± 0.015 | Serum hAAT normalized to day 1 and controls (mice euthanized Day 29, Day 15): 0.057 ± 0.016 | Serum hAAT normalized to day 1 and controls (mice euthanized Day 29, Day 22): 0.103 ± 0.032 | Serum hAAT normalized to day 1 and controls (mice euthanized Day 29, Day 29): 0.209 ± 0.071 | Serum hAAT normalized to day 1 and controls (mice euthanized Day 29, Day −2): 0.653 ± 0.102
